This passage reports IC50 results from ChEMBL document CHEMBL5058641, “Data for DCP probe TP-050” (2022).

Molecules are shown by their SMILES.

The target in experiment [1] is Amine oxidase [flavin-containing] A (Homo sapiens, UniProt P21397). The experiment is described as follows: MAOA Eurofins SafetyScreen (Other). Also on record: species or system Inhibitor.
Experiment [2] addresses Sodium-dependent serotonin transporter (Homo sapiens, UniProt P31645). Kind of experiment: SERT Eurofins SafetyScreen (Other). Also on record: species or system Blocker.

Sequence of Sodium-dependent serotonin transporter (P31645 whole entry): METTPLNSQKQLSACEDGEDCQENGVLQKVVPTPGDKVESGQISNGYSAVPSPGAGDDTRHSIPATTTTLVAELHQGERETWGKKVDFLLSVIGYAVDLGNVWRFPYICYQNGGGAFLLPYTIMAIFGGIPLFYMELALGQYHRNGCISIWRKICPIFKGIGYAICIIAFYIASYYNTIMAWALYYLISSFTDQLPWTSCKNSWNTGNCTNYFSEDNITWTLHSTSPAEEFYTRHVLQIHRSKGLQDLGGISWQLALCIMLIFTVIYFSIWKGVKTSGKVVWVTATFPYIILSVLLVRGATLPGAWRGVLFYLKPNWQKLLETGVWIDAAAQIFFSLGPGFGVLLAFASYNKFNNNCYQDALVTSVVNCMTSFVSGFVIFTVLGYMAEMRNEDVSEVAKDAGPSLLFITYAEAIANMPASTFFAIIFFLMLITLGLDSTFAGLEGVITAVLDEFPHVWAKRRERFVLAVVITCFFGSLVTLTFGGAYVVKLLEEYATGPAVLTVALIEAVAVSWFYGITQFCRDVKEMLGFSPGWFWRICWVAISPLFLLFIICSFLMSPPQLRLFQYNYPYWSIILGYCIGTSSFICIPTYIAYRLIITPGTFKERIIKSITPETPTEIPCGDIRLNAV
Sequence of Amine oxidase [flavin-containing] A (P21397 whole entry): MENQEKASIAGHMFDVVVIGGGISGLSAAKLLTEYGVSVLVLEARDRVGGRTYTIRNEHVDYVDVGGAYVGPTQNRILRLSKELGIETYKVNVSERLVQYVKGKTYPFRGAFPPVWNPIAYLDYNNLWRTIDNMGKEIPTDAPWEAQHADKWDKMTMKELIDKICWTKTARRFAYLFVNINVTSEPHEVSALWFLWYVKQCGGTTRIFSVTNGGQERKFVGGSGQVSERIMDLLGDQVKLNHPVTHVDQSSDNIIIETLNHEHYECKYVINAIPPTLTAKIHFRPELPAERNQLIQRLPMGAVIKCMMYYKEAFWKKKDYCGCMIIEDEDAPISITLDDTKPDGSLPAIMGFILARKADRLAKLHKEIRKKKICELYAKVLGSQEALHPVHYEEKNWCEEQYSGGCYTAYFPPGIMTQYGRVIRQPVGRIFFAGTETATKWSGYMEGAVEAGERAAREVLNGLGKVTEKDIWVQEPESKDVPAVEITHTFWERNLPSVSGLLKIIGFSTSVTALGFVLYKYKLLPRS

In the case of `Cc1cn([C@H](C)CC#N)c(=O)c2cc(Cn3nc(C(F)F)cc3Cl)nn12`, the IC50 in experiment [1] and in experiment [2] was > 10 µM each time.

The IC50 is the concentration that gives 50% inhibition. Low values mean greater potency, high ones weaker potency.
